Laboratory results as given in PubChem BioAssay AID651630 (Sanford-Burnham Center for Chemical Genomics, 2012).
Calls of active or inactive are those of the source.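 The calls were made as follows: active = lipid-stain IC50 at or below a set limit, with nuclear-stain toxicity IC50 at least five times higher; inactive = the rest.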

Assays:
[1] = test system: TAG; assay: TAG lipid buildup inhibition with viability readout – cell-based, panel, Nile Red and DAPI fluorescence, H9c2, dose response (AID 651630); details: H9c2 cells, Nile Red TAG fluorescence, oleic acid;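 also: cells exposed to compound overnight before fixation and staining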
[2] = test system: DAPI; assay: as above; details: H9c2 cells, DAPI nuclear fluorescence (cytotoxicity counter-readout), oleic acid

| SMILES | IC50 ([1]; mean of runs) | IC50 ([1]; run 1) [µM] | IC50 ([1]; run 2) [µM] | IC50 cytotoxicity (DAPI nuclear signal decrease) ([2]; mean of runs) | IC50 cytotoxicity (DAPI nuclear signal decrease) ([2]; run 1) [µM] | IC50 cytotoxicity (DAPI nuclear signal decrease) ([2]; run 2) [µM] |
| --- | --- | --- | --- | --- | --- | --- |
| CC1(C(=O)Nc2cccc(Oc3ccccc3)c2)Cc2c(-c3ccc4c(c3)OCO4)ccnc2O1 (stereo not drawn) | > 25 µM (inactive) | > 25 | > 25 | > 25 µM (inactive) | > 25 | > 25 |
| O=C(Nc1cc2c3c(c1)C1CCCC1CN3CC1CCCC21)c1ccc([N+](=O)[O-])cc1 (stereo not drawn) | 12.3 µM | 11.3 | 13.2 | > 25 µM (inactive) | > 25 | > 25 |
| O=C1NC(Cc2ccc(O)cc2)c2nc3ccc(Cl)cc3c(=O)n2-c2cc3ccccc3cc21 (stereo not drawn) | > 25 µM (inactive) | > 25 | > 25 | > 25 µM (inactive) | > 25 | > 25 |
| COc1cc(/C=C/CN2CCC(C(=O)NC(c3ccc(F)cc3)c3ccc4ccccc4n3)CC2)ccc1OC(C)=O (stereo not drawn) | 11.6 µM | 13.3 | 9.99 | > 25 µM (inactive) | > 25 | > 25 |
| Cc1ccc(NC(=O)c2nc[nH]c2C(=O)NCCCCNC(=O)c2[nH]cnc2C(=O)Nc2ccc(C)cc2)cc1 | 5.46 µM | 6.27 | 4.66 | > 25 µM (inactive) | > 25 | > 25 |
| COc1cc(C#Cc2c(-c3cncn3C)n(C)c3ccc(-c4cc(OC)c(OC)c(OC)c4)cc23)cc(OC)c1 | > 25 µM (inactive) | > 25 | > 25 | > 25 µM (inactive) | > 25 | > 25 |
| CCC(C)(C)NC(=O)C(c1ccc(C)cc1)N(Cc1ccco1)C(=O)CCC(=O)Nc1nccs1 (stereo not drawn) | 6.82 µM | 4.82 | 8.81 | > 25 µM (inactive) | > 25 | > 25 |
| Cc1ccc(Sc2cc(N3CCOCC3)nc(-c3ccccc3)n2)cc1 | > 25 µM (inactive) | > 25 | > 25 | > 25 µM (inactive) | > 25 | > 25 |
| Cc1ccc(-c2cc(C(F)F)n3ncc(C(=O)Nc4c(C)nn(Cc5c(Cl)cccc5Cl)c4C)c3n2)cc1 | > 25 µM (inactive) | > 25 | > 25 | > 25 µM (inactive) | > 25 | > 25 |
| Cc1nc(C(=O)Nc2ccccc2Cl)cc2c1[nH]c1ccccc12 | 3.06 µM | 2.87 | 3.24 | – | > 25 | > 25 |
| CCOc1ccc(C(=O)Nc2nnc(NC(=S)Nc3ccccc3)s2)cc1 | – | > 25 | 23 | > 25 µM (inactive) | > 25 | > 25 |
| CC1(C(=O)NCc2ccco2)Cc2c(-c3cccc(C(F)(F)F)c3)ccnc2O1 (stereo not drawn) | > 25 µM (inactive) | > 25 | > 25 | > 25 µM (inactive) | > 25 | > 25 |
| O=C(Nc1nc2ccc(C(=O)N3CCCCC3)cc2s1)C1CCCCC1 | 15.4 µM (inactive) | 10.6 | 20.2 | > 25 µM (inactive) | > 25 | > 25 |
| COc1ccc(OC)c(N(CCN2C(=O)c3ccccc3C2=O)C(=O)CCl)c1 | > 25 µM (inactive) | > 25 | > 25 | > 25 µM (inactive) | > 25 | > 25 |
| CCOC(=O)[C@H]1[C@H]2COc3ccc(Cl)cc3[C@@H]2N2C(=O)c3cc(OC)ccc3NC(=O)[C@@]12C | > 25 µM (inactive) | > 25 | > 25 | > 25 µM (inactive) | > 25 | > 25 |
| COc1ccc(S(=O)(=O)N(C)C[C@@H]2OCCCC[C@H](C)Oc3ccc(NC(=O)Nc4ccc(C(F)(F)F)cc4)cc3C(=O)N([C@H](C)CO)C[C@H]2C)cc1 | > 25 µM (inactive) | > 25 | > 25 | > 25 µM (inactive) | > 25 | > 25 |
| C[C@H]1CN([C@@H](C)CO)C(=O)Cc2cc(NC(=O)CCC(F)(F)F)ccc2O[C@H]1CN(C)S(=O)(=O)c1ccc(Cl)cc1 | > 25 µM (inactive) | > 25 | > 25 | > 25 µM (inactive) | > 25 | > 25 |

| SMILES | IC50 ([1]; mean of runs) | IC50 ([1]; run 1) [µM] | IC50 ([1]; run 2) [µM] | IC50 cytotoxicity (DAPI nuclear signal decrease) ([2]; mean of runs) | IC50 cytotoxicity (DAPI nuclear signal decrease) ([2]; run 1) [µM] | IC50 cytotoxicity (DAPI nuclear signal decrease) ([2]; run 2) [µM] |
| --- | --- | --- | --- | --- | --- | --- |
| COc1ccccc1-c1cc(C(F)(F)F)nc(S(=O)(=O)CCCC(=O)NC(C)C)n1 | 11.2 µM | 13.5 | 8.8 | 18.4 µM (inactive) | 19.9 | 17 |
| COCCNc1nc(NCc2ccc(NC(C)=O)cc2)c2sc(-c3ccccc3)cc2n1 | > 25 µM (inactive) | > 25 | > 25 | – | 19.1 | > 25 |
| C=CC[C@@H](CC(=O)N(CCO)Cc1ccccc1)C(=O)N[C@H](COC(=O)[C@@H](CC=C)Cc1ccc(F)cc1)C(C)(C)C | 4.28 µM | 3.51 | 5.05 | – | > 25 | > 25 |
| CC(C)C[C@H]1CNC(=S)N1CC1CCCN1C[C@H](CC(C)C)N1C[C@H](CC(C)C)N(CCc2ccccc2)C1=S (stereo partly drawn) | 14.4 µM | 15.3 | 13.4 | > 25 µM (inactive) | > 25 | > 25 |
| Cc1[nH]c2ccccc2c1C(c1ccccn1)N1CCC(C)CC1 (stereo not drawn) | 15.5 µM (inactive) | 14.8 | 16.2 | 21.8 µM (inactive) | 21.2 | 22.4 |
| CCCC(=O)Nc1nc2ccc(NC(=O)c3ccccc3F)cc2s1 | 13 µM | 12.4 | 13.6 | > 25 µM (inactive) | > 25 | > 25 |
| COc1ccccc1NC1=NC(c2ccc(Cl)cc2)N=C(N)N1 (stereo not drawn) | > 25 µM (inactive) | > 25 | > 25 | > 25 µM (inactive) | > 25 | > 25 |
| Oc1cccc2cc(-c3ccncc3)cnc12 | > 25 µM (inactive) | > 25 | > 25 | > 25 µM (inactive) | > 25 | > 25 |
| Cc1cc(N2CCOCC2)n2nc(C)c(-c3ccccc3)c2n1 | – | 14.6 | > 25 | > 25 µM (inactive) | > 25 | > 25 |
| CCOc1ccc(Cc2nnc(SCC(=O)Nc3ccccc3)n(N)c2=O)cc1 | 5.04 µM | 5.36 | 4.71 | > 25 µM (inactive) | > 25 | > 25 |
| c1ccc(N=NC2=NN(c3ccccc3)CS2)cc1 | 3.69 µM | 3.57 | 3.8 | – | > 25 | > 25 |
| C[C@H]1CCCCO[C@H](CN(C)CC2CCCCC2)[C@@H](C)CN([C@@H](C)CO)C(=O)c2cc(NS(=O)(=O)c3ccccc3)ccc2O1 | – | 22.5 | > 25 | > 25 µM (inactive) | > 25 | > 25 |
| CN(C)C(=O)c1cccc(-c2cnc3c(NC=O)cc(-c4ccc(C(=O)N5CCOCC5)cc4)cn23)c1 | 8.71 µM | 3.47 | 13.9 | > 25 µM (inactive) | > 25 | > 25 |
| COc1ccc2[nH]c3c(c2c1)CCN1C(=O)C(CC(=O)NCC24CC5CC(CC(C5)C2)C4)C[C@H](C(=O)N2CCOCC2)[C@@]31CCC1CCCC1 (stereo partly drawn) | – | 4.99 | > 25 | > 25 µM (inactive) | > 25 | > 25 |
| C[C@H](O)C#Cc1ccc2c(c1)O[C@@H](CN(C)Cc1ccc(-c3ccccc3)cc1)[C@H](C)CN([C@@H](C)CO)S2(=O)=O | – | > 25 | 17.9 | > 25 µM (inactive) | > 25 | > 25 |
| COc1ccccc1C1C2=C(COC2=O)Nc2cc3c(cc21)OCO3 (stereo not drawn) | – | < 0.78 | > 25 | > 25 µM (inactive) | > 25 | > 25 |
